Measurements: US11993640B2, “Treating inflammatory lung disease” (United States Government as represented by the Department …, priority 2019, dated 2024)
Entries after “also recorded” stand apart in the source; their conditions may differ. Non-standard residues stand in square brackets, D forms with d. Residues, ends and D or L forms follow the SMILES beside them. *: point of attachment. Phenylacetyl(2,3,4,5,6-F5) = O=C(Cc1c(F)c(F)c(F)c(F)c1F)*; Phe(F5) = N[C@@H](Cc1c(F)c(F)c(F)c(F)c1F)C(=O)O; Phe(4-Cl) = N[C@@H](Cc1ccc(Cl)cc1)C(=O)O; hArg = N=C(N)NCCCC[C@H](N)C(=O)O; 12Ado = NCCCCCCCCCCCC(=O)O; Nle = CCCC[C@H](N)C(=O)O; Orn = NCCC[C@H](N)C(=O)O; Abu = CC[C@H](N)C(=O)O; PhAc = O=C(Cc1ccccc1)*

Legend:
[1] = biological target: T1, membrane GHRH-receptors on human anterior pituitary cells (Homo sapiens, UniProt Q02643); experiment: Competitive receptor binding, displacement of 125I-[His1,Nle27]-hGH-RH(1-32)NH2 from human pituitary membranes
T1 construct: Human pituitary was purchased from the National Hormone and Peptide Program; tissue National Hormone and Peptide Program; host or cells: human pituitary membrane fractions
T1 sequence (Q02643 23-423): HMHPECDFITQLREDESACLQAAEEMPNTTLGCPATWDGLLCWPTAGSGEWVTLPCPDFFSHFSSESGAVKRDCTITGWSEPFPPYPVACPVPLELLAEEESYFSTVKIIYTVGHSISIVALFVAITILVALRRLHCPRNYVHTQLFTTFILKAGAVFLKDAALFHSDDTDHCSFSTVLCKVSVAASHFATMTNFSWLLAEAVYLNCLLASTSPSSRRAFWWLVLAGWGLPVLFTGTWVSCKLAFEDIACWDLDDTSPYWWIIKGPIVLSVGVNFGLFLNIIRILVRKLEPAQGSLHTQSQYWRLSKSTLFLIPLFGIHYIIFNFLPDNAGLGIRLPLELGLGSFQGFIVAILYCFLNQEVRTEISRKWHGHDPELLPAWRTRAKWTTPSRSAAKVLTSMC
Experimental: Receptor binding affinities in vitro. Preparation of human pituitary membrane fractions and receptor binding of analogs of GH-RH were performed (Halmos G, Rekasi Z, Szoke B, Schally A V. (1993) Receptor 3:87-97). Human pituitary was purchased from the National Hormone and Peptide Program. […] Relative affinities compared to hGH-RH(1-29)NH2 were calculated as the ratio of IC50 (dose causing 50% inhibition of specific binding to receptors) of the tested peptides to the IC50 of hGH-RH(1-29)NH2. The values were calculated from technical duplicate tubes.
Nineteen new AVR analogs of GHRH were tested in the receptor binding assay. Table 6 presents the IC50 values of GHRH antagonists to membrane GHRH-receptors binding on human anterior pituitary cells.

HCC827 cells = experiment: In vitro cell viability, lung cancer HCC827; type: cell-based, human; details: 5 μM, 72 h; relative to MIA602 = 1; Table 3A
Experimental: (§1) The inhibitory effects of the various synthesized GHRH antagonists were tested in cell proliferation assays in various human cancer cell lines including stomach cancer (KATOIII, N87), colon cancer (HT-29), urothelial cancer (J82, RT4), pancreatic cancer (PANC-1, CFPAC-1), prostatic cancer (PC3), breast cancer (MX-1, HCC1806), ovarian cancer (SK-OV-3, OVCAR-3) and lung cancer (HCC827, H460).
(§2) Cell culture. Human cancer cell lines including pancreatic (PANC-1 and CFPAC-1), lung (HCC827 and H460), stomach (NCI-N87 and KATOIII), urothelial (J82, RT4), prostatic (PC3), breast (MX-1 and HCC 1806), colorectal (HT-29), and ovarian (SK-OV-3 and OVCAR-3) were obtained from the American Type Culture Collection (ATCC) and cultured at 37° C. in a humidified 95% air/5% CO2 atmosphere in the medium recommended by ATCC.
(§3) In vitro cell viability. Cell viability was analyzed as follows: cancer cells including pancreatic (PANC-1 and CFPAC-1), lung (HCC827 and H460), stomach (NCI-N87 and KATOIII), urothelial (J82, RT4), prostatic (PC3) and breast (MX-1 and HCC 1806), colorectal (HT-29) and ovarian (SK-OV-3 and OVCAR-3) were grown on 96 well plates to ˜60% confluence, the cells were starved for 24 h in culture medium containing 0.5% FBS. Cells were then treated with GHRH antagonists MIA602 AVR compounds at concentrations of 1, 2.5 or 5 μM, or vehicle (0.1% DMSO) in quintuplicates for 72 hours. The medium was replaced every 48 hours. Cell viability was measured using CellTiter 96 aqueous one solution kit (Promega). Inhibitory effects of tested AVR compounds in comparison to that of MIA602 are presented as inhibitory potency.
(§4) Inhibitory effects of selected AVR compounds in comparison to that of MIA602 are presented as inhibitory potency (e.g., percentage of inhibition). […] The cell lines tested including lung cancer HCC827 (FIG. 2A), pancreatic cancer CFPAC-1 (FIG. 2B), stomach cancer N87 (FIG. 2C), colon cancer HT-29 (FIG. 2D), breast cancers MX-1 and HCC1806 (FIGS. 2E, F). Based on the results of cell proliferation assay after cancer cells were treated with antagonist at concentration of 5 μM for 72H, the relative inhibitory potency of AVR antagonists in comparison to MIA-602 is summarized in Table 3 A and B. Over 60 AVR compounds were tested in 12 cancer cell lines.
(§5) Based on the results of cell proliferation assay after cancer cells were treated with antagonist at concentration of 5 µM for 72H, * at concentration of 2 µM for 72 H.

CFPAC-1 cells = experiment: In vitro cell viability, pancreatic cancer CFPAC-1; type: cell-based, human; details: 5 μM, 72 h; relative to MIA602 = 1; Table 3A
Experimental: as §1, §2, §3, §4, §5

KATOIII cells = experiment: In vitro cell viability, stomach cancer KATOIII; type: cell-based, human; details: 5 μM, 72 h; relative to MIA602 = 1; Table 3A
Experimental: as §1, §2, §3, §4

## CCCC[C@H](NC(=O)[C@@H](NC(=O)[C@H](CC(=O)O)NC(=O)[C@H](CCC(N)=O)NC(=O)[C@H](CC(C)C)NC(=O)[C@H](CC(C)C)NC(=O)[C@H](CCCN)NC(=O)[C@H](Cc1c[nH]cn1)NC(=O)[C@H](C)NC(=O)[C@H](CO)NC(=O)[C@H](CC(C)C)NC(=O)[C@H](CCC(N)=O)NC(=O)[C@H](CC)NC(=O)[C@H](CC(C)C)NC(=O)[C@@H](NC(=O)[C@H](CCCN)NC(=O)[C@H](Cc1c[nH]cn1)NC(=O)[C@H](Cc1c(F)c(F)c(F)c(F)c1F)NC(=O)[C@H](CCCCNC(=N)N)NC(=O)[C@H](C)NC(=O)[C@@H](NC(=O)[C@H](Cc1ccc(Cl)cc1)NC(=O)[C@@H](NC(=O)[C@H](C)NC(=O)[C@H](CC(=O)O)NC(=O)[C@@H](CCCNC(=N)N)NC(=O)[C@H](Cc1ccc(O)cc1)NC(=O)CCCCCCCCCCCNC(=O)Cc1c(F)c(F)c(F)c(F)c1F)[C@@H](C)CC)[C@@H](C)O)C(C)C)[C@@H](C)CC)C(=O)N[C@H](CCCNC(=N)N)C(=O)N[C@@H](CCCCNC(=N)N)C(=O)NC [AVR-542, 5FPhAC-Ada-Tyr-DArg-Asp-Ala-Ile-Cpa-Thr-Ala-Har-5FPhe-His-Orn-Val-Leu-Abu-Gln-Leu-Ser-Ala-His-Orn-Leu-Leu-Gln-Asp-Ile-Nle-DArg-Har-NHCH3] ({Phenylacetyl(2,3,4,5,6-F5)-12Ado}-Y[dR]DAI[Phe(4-Cl)]TA[hArg][Phe(F5)]H[Orn]VL[Abu]QLSAH[Orn]LLQDI[Nle][dR][hArg]-NHMe)
[1]; human anterior pituitary membranes, mean of two to three determinations, read-out: IC50
  IC50: 0.21 nM
HCC827 cells
  Relative inhibitory potency, Lung HCC827: 2.649
CFPAC-1 cells
  Relative inhibitory potency, Pancreatic CFPAC-1: 1.312

## CCCC[C@H](NC(=O)[C@@H](NC(=O)[C@H](CC(=O)O)NC(=O)[C@H](CCC(N)=O)NC(=O)[C@H](CC(C)C)NC(=O)[C@H](CC(C)C)NC(=O)[C@H](CCCN)NC(=O)[C@H](Cc1c[nH]cn1)NC(=O)[C@H](C)NC(=O)[C@H](CO)NC(=O)[C@H](CC(C)C)NC(=O)[C@H](CCC(N)=O)NC(=O)[C@H](CC)NC(=O)[C@H](CC(C)C)NC(=O)[C@@H](NC(=O)[C@H](CCCCN)NC(=O)[C@H](CCCNC(=N)N)NC(=O)[C@H](Cc1ccc(OC)cc1)NC(=O)[C@H](CCCNC(=N)N)NC(=O)[C@H](CC(N)=O)NC(=O)[C@@H](NC(=O)[C@H](Cc1ccc(Cl)cc1)NC(=O)[C@@H](NC(=O)[C@H](C)NC(=O)[C@H](CC(=O)O)NC(=O)[C@@H](CCCNC(=N)N)NC(=O)[C@H](Cc1ccc(O)cc1)NC(=O)CCCCCCCCCCCNC(=O)Cc1c(F)c(F)c(F)c(F)c1F)[C@@H](C)CC)[C@@H](C)O)C(C)C)[C@@H](C)CC)C(=O)N[C@H](CCCNC(=N)N)C(=O)N[C@@H](CCCCNC(=N)N)C(=O)NCCCCCCCCCCCC(N)=O [AVR-620, 5FPhAC-Ada-Tyr-DArg-Asp-Ala-Ile-Cpa-Thr-Asn-Arg-Tyr(Me)-Arg-Lys-Val-Leu-Abu-Gln-Leu-Ser-Ala-His-Orn-Leu-Leu-Gln-Asp-Ile-Nle-DArg-Har-Ada-NH2] ({Phenylacetyl(2,3,4,5,6-F5)-12Ado}-Y[dR]DAI[Phe(4-Cl)]TNRY(Me)RKVL[Abu]QLSAH[Orn]LLQDI[Nle][dR][hArg][12Ado]-NH2)
KATOIII cells
  Relative inhibitory potency, Stomach KATOIII: 1.769
HCC827 cells
  Relative inhibitory potency, Lung HCC827: 3.753
CFPAC-1 cells
  Relative inhibitory potency, Pancreatic CFPAC-1: 1.567

## CCCC[C@H](NC(=O)[C@@H](NC(=O)[C@H](CC(=O)O)NC(=O)[C@H](CCC(N)=O)NC(=O)[C@H](CC(C)C)NC(=O)[C@H](CC(C)C)NC(=O)[C@H](CCCCN)NC(=O)[C@H](CCCNC(=N)N)NC(=O)[C@H](C)NC(=O)[C@H](CO)NC(=O)[C@H](CC(C)C)NC(=O)[C@H](CCC(N)=O)NC(=O)[C@H](CC)NC(=O)[C@H](CC(C)C)NC(=O)[C@@H](NC(=O)[C@H](CCCCN)NC(=O)[C@H](CCCNC(=N)N)NC(=O)[C@H](Cc1ccc(OC)cc1)NC(=O)[C@H](CCCNC(=N)N)NC(=O)[C@H](CC(N)=O)NC(=O)[C@@H](NC(=O)[C@H](Cc1ccc(Cl)cc1)NC(=O)[C@@H](NC(=O)[C@H](C)NC(=O)[C@H](CC(=O)O)NC(=O)[C@@H](CCCNC(=N)N)NC(=O)[C@H](Cc1ccc(O)cc1)NC(=O)CCCCCCCCCCCNC(=O)Cc1ccccc1)[C@@H](C)CC)[C@@H](C)O)C(C)C)[C@@H](C)CC)C(=O)N[C@H](CCCNC(=N)N)C(=O)N[C@@H](CCCCNC(=N)N)C(=O)NC [AVR-234, PhAC-Ada-Tyr-DArg-Asp-Ala-Ile-Cpa-Thr-Asn-Arg-Tyr(Me)-Arg-Lys-Val-Leu-Abu-Gln-Leu-Ser-Ala-Arg-Lys-Leu-Leu-Gln-Asp-Ile-Nle-DArg-Har-NHCH3] ({PhAc-12Ado}-Y[dR]DAI[Phe(4-Cl)]TNRY(Me)RKVL[Abu]QLSARKLLQDI[Nle][dR][hArg]-NHMe)
KATOIII cells
  Relative inhibitory potency, Stomach KATOIII: 1.709
HCC827 cells
  Relative inhibitory potency, Lung HCC827: 4.510
CFPAC-1 cells
  Relative inhibitory potency, Pancreatic CFPAC-1: 2.205

## CCCC[C@H](NC(=O)[C@@H](NC(=O)[C@H](CC(=O)O)NC(=O)[C@H](CCC(N)=O)NC(=O)[C@H](CC(C)C)NC(=O)[C@H](CC(C)C)NC(=O)[C@H](CCCN)NC(=O)[C@H](Cc1c[nH]cn1)NC(=O)[C@H](C)NC(=O)[C@H](CO)NC(=O)[C@H](CC(C)C)NC(=O)[C@H](CCC(N)=O)NC(=O)[C@H](CC)NC(=O)[C@H](CC(C)C)NC(=O)[C@@H](NC(=O)[C@H](CCCN)NC(=O)[C@H](Cc1c[nH]cn1)NC(=O)[C@H](Cc1ccc(OC)cc1)NC(=O)[C@H](CCCCNC(=N)N)NC(=O)[C@H](C)NC(=O)[C@@H](NC(=O)[C@H](Cc1c(F)c(F)c(F)c(F)c1F)NC(=O)[C@@H](NC(=O)[C@H](C)NC(=O)[C@H](CC(=O)O)NC(=O)[C@@H](CCCNC(=N)N)NC(=O)[C@H](Cc1ccc(O)cc1)NC(=O)CCCCCCCCCCCNC(=O)Cc1c(F)c(F)c(F)c(F)c1F)[C@@H](C)CC)[C@@H](C)O)C(C)C)[C@@H](C)CC)C(=O)N[C@H](CCCNC(=N)N)C(=O)N[C@@H](CCCCNC(=N)N)C(=O)NCCCCCCCCCCCC(N)=O [AVR-553, 5FPhAC-Ada-Tyr-DArg-Asp-Ala-Ile-5FPhe-Thr-Ala-Har-Tyr(Me)-His-Orn-Val-Leu-Abu-Gln-Leu-Ser-Ala-His-Orn-Leu-Leu-Gln-Asp-Ile-Nle-DArg-Har-Ada-NH2] ({Phenylacetyl(2,3,4,5,6-F5)-12Ado}-Y[dR]DAI[Phe(F5)]TA[hArg]Y(Me)H[Orn]VL[Abu]QLSAH[Orn]LLQDI[Nle][dR][hArg][12Ado]-NH2)
[1]
  Binding affinity to membrane receptors of human pituitary cells: higher binding affinity in comparison to MIA-602; also recorded: highest binding affinities
